Laboratory results taken from patent publication US8563542B2 (Cyclacel Limited, priority 2007, dated 2013).

Target: PLK1 (Homo sapiens, UniProt P53350)
Assay: PLK1 protein kinase assay (CDC25C phosphorylation, [γ-32P]-ATP)
Assay type: biochemical
Conditions: Table 2, PLK1 IC50; class symbols; read-out: PLK1 IC50

Sequence of PLK1 (P53350 whole entry): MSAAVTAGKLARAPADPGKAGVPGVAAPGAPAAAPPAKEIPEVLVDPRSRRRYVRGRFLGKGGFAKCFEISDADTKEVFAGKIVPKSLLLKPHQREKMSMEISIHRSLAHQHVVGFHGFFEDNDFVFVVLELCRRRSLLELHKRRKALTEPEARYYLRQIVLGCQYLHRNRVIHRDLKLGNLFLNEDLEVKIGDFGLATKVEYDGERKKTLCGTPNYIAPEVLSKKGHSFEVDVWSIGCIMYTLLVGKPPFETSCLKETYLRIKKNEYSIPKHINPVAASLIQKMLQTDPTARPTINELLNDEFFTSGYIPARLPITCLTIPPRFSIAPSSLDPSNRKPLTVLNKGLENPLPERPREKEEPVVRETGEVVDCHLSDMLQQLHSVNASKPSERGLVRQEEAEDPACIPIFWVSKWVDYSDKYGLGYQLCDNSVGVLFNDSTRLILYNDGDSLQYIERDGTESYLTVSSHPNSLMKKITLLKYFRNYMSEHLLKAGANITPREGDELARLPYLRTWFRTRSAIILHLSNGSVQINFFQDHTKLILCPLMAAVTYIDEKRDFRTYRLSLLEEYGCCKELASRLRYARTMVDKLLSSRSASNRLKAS

IC50 [nM] | Compound
< 100 | COc1ccc(Nc2ncc3c(n2)N(C2CCCC2)CCC(=O)N3C)c(OC)c1 [compound 71, 9-Cyclopentyl-2-(2,4-dimethoxy-phenylamino)-5-methyl-5,7,8,9-tetrahydro-pyrimido[4,5-b][1,4]diazepin-6-one]
< 10000 | COc1ccc(CNc2ncc3c(n2)N(C2CCCC2)CCC(=O)N3C)cc1 [compound 92, 9-Cyclopentyl-2-(4-methoxy-benzylamino)-5-methyl-5,7,8,9-tetrahydro-pyrimido[4,5-b][1,4]diazepin-6-one]
< 10000 | CN1C(=O)CCN(C2CCCC2)c2nc(NCc3cccs3)ncc21 [compound 94, 9-Cyclopentyl-5-methyl-2-[(thiophen-2-ylmethyl)-amino]-5,7,8,9-tetrahydro-pyrimido[4,5-b][1,4]diazepin-6-one]
< 10000 | COc1cc(C(=O)Nc2ccccc2)ccc1Nc1ncc2c(n1)N(C1CCCC1)CCC(=O)N2C [compound 95, 4-(9-Cyclopentyl-5-methyl-6-oxo-6,7,8,9-tetrahydro-5H-pyrimido[4,5-b][1,4]diazepin-2-ylamino)-3-methoxy-N-phenyl-benzamide]
< 1000 | CN1C(=O)CCN(C2CCCC2)c2nc(Nc3cccc4cc[nH]c34)ncc21 [compound 98, 9-Cyclopentyl-2-(1H-indol-7-ylamino)-5-methyl-5,7,8,9-tetrahydro-pyrimido[4,5-b][1,4]diazepin-6-one]
< 100 | COc1cc(C(=O)NC2CCN(C)CC2)ccc1Nc1ncc2c(n1)N(C(C)C)CC1(CC1)C(=O)N2C [compound 99, 4-(9-Isopropyl-5-methyl-6-oxo-6,7,8,9-tetrahydro-5H-spiro[pyrimido[4,5-b][1,4]diazepin-3,1′-cyclopropane]-2-ylamino)-3-methoxy-N-(1-methyl-piperidin-4-yl)-benzamide]
< 1000 | COc1cc(C(=O)NC2CCN(C)CC2)ccc1Nc1ncc2c(n1)N(C1CCCC1)CC1(CCCC1)C(=O)N2C [compound 101, 4-(9-Cyclopentyl-5-methyl-6-oxo-6,7.8,9-tetrahydro-5H-spiro[pyrimido[4,5-b][1,4]diazepin-3,1′-cyclopentane]-2-ylamino)-3-methoxy-N-(1-methyl-piperidin-4-yl)-benzamide]
< 1000 | C=CCN1CCC(=O)N(C)c2cnc(Nc3ccc(C(=O)NC4CCN(C)CC4)cc3OC)nc21 [compound 102, 4-(9-Allyl-5-methyl-6-oxo-6,7,8,9-tetrahydro-5H-pyrimido[4,5-b][1,4]diazepin-2-ylamino)-3-methoxy-N-(1-methyl-piperidin-4-yl)-benzamide]
< 10000 | CN1C(=O)CCN(C2CCCC2)c2nc(NCc3ccsc3)ncc21 [compound 106, 9-Cyclopentyl-5-methyl-2-[(thiophen-3-ylmethyl)-amino]-5,7,8,9-tetrahydro-pyrimido[4,5-b][1,4]diazepin-6-one]
< 10000 | CN1C(=O)CCN(C2CCCC2)c2nc(NCc3ccoc3)ncc21 [compound 107, 9-Cyclopentyl-2-[(furan-3-ylmethyl)-amino]-5-methyl-5,7,8,9-tetrahydro-pyrimido[4,5-b][1,4]diazepin-6-one]
< 1000 | COc1cc(C(=O)NC2CCN(C)CC2)ccc1Nc1ncc2c(n1)N(C)CCC(=O)N2C [compound 111, 4-(5,9-Dimethyl-6-oxo-6,7,8,9-tetrahydro-5H-pyrimido[4,5-b][1,4]diazepin-2-ylamino)-3-methoxy-N-(1-methyl-piperidin-4-yl)-benzamide]
< 10000 | CNC(=O)c1ccc(Nc2ncc3c(n2)N(C)CCC(=O)N3C)c(OC)c1 [compound 112, 4-(5,9-Dimethyl-6-oxo-6,7,8,9-tetrahydro-5H-pyrimido[4,5-b][1,4]diazepin-2-ylamino)-3-methoxy-N-methyl-benzamide]
< 1000 | CNC(=O)c1ccc(Nc2ncc3c(n2)N(C(C)C)CC2(CC2)C(=O)N3C)c(OC)c1 [compound 113, 4-(9-Isopropyl-5-methyl-6-oxo-6,7,8,9-tetrahydro-5H-spiro[pyrimido[4,5-b][1,4]diazepin-3,1′-cyclopropane]-2-ylamino)-3-methoxy-N-methyl-benzamide]
< 10000 | CN1C(=O)CCN(C2CCCC2)c2nc(NCc3ccc4c(c3)OCCO4)ncc21 [compound 127, 9-Cyclopentyl-2-[(2,3-dihydro-benzo[1,4]dioxin-6-ylmethyl)-amino]-5-methyl-5,7,8,9-tetrahydro-pyrimido[4,5-b][1,4]diazepin-6-one]
< 10000 | CN1C(=O)CCN(C2CCCC2)c2nc(NCc3cc4ccccc4s3)ncc21 [compound 129, 2-[(Benzo[b]thiophen-2-ylmethyl)-amino]-9-cyclopentyl-5-methyl-5,7,8,9-tetrahydro-pyrimido[4,5-b][1,4]diazepin-6-one]
< 10000 | Cc1cccc(CNc2ncc3c(n2)N(C2CCCC2)CCC(=O)N3C)c1 [compound 131, 9-Cyclopentyl-5-methyl-2-(3-methyl-benzylamino)-5,7,8,9-tetrahydro-pyrimido[4,5-b][1,4]diazepin-6-one]
< 10000 | CNC(=O)c1cccc(Nc2ncc3c(n2)N(C2CCCC2)CCC(=O)N3C)c1C [compound 141, 3-(9-Cyctopentyl-5-methyl-6-oxo-6,7,8,9-tetrahydro-5H-pyrimido[4,5-b][1,4]diazepin-2-ylamino)-2,N-dimethyl-benzamide]
< 10000 | Cc1c(Nc2ncc3c(n2)N(C2CCCC2)CCC(=O)N3C)cccc1C(=O)NCCO [compound 142, 3-(9-Cyclopentyl-5-methyl-6-oxo-6,7,8,9-tetrahydro-5H-pyrimido[4,5-b][1,4]diazepin-2-ylamino)-N-(2-hydroxy-ethyl)-2-methyl-benzamide]
< 1000 | COc1ccc(C(=O)NC2CCN(C)CC2)cc1Nc1ncc2c(n1)N(C1CCCC1)CCC(=O)N2C [compound 143, 3-(9-Cyclopentyl-5-methyl-6-oxo-6,7,8,9-tetrahydro-5H-pyrimido[4,5-b][1,4]diazepin-2-ylamino)-4-methoxy-N-(1-methyl-piperidin-4-yl)-benzamide]
< 1000 | CNC(=O)c1ccc(OC)c(Nc2ncc3c(n2)N(C2CCCC2)CCC(=O)N3C)c1 [compound 144, 3-(9-Cyclopentyl-5-methyl-6-oxo-6,7,8,9-tetrahydro-5H-pyrimido[4,5-b][1,4]diazepin-2-ylamino)-4-methoxy-N-methyl-benzamide]
< 1000 | COc1ccc(C(=O)NCCO)cc1Nc1ncc2c(n1)N(C1CCCC1)CCC(=O)N2C [compound 145, 3-(9-Cyclopentyl-5-methyl-6-oxo-6,7,8,9-tetrahydro-5H-pyrimido[4,5-b][1,4]diazepin-2-ylamino)-N-(2-hydroxy-ethyl)-4-methoxy-benzamide]
< 1000 | COc1cc(C(=O)N(C)CCCN(C)C)ccc1Nc1ncc2c(n1)N(C1CCCC1)CCC(=O)N2C [compound 147, 4-(9-Cyclopentyl-5-methyl-6-oxo-6,7,8,9-tetrahydro-5H-pyrimido[4,5-b][1,4]diazepin-2-ylamino)-N-(3-dimethylamino-propyl)-3-methoxy-N-methyl-benzamide]
< 100 | CCN(CC)CCNC(=O)c1ccc(Nc2ncc3c(n2)N(C2CCCC2)CCC(=O)N3C)c(OC)c1 [compound 148, 4-(9-Cyclopentyl-5-methyl-6-oxo-6,7,8,9-tetrahydro-5H-pyrimido[4,5-b][1,4]diazepin-2-ylamino)-N-(2-diethylamino-ethyl)-3-methoxy-benzamide]
< 1000 | COc1cc(C(=O)NCCCN(C)C)ccc1Nc1ncc2c(n1)N(C1CCCC1)CCC(=O)N2C [compound 149, 4-(9-Cyclopentyl-5-methyl-6-oxo-6,7,8,9-tetrahydro-5H-pyrimido[4,5-b][1,4]diazepin-2-ylamino)-N-(3-dimethylamino-propyl)-3-methoxy-benzamide]
< 1000 | COc1cc(C(=O)N[C@H]2c3ccccc3C[C@H]2O)ccc1Nc1ncc2c(n1)N(C1CCCC1)CCC(=O)N2C [compound 150, 4-(9-Cyclopentyl-5-methyl-6-oxo-6,7,8,9-tetrahydro-5H-pyrimido[4,5-b][1,4]diazepin-2-ylamino)-N-((1S,2R)-2-hydroxy-indan-1-yl)-3-methoxy-benzamide]
< 1000 | COc1cc(C(=O)N[C@@H](CO)C(C)C)ccc1Nc1ncc2c(n1)N(C1CCCC1)CCC(=O)N2C [compound 152, 4-(9-Cyclopentyl-5-methyl-6-oxo-6,7,8,9-tetrahydro-5H-pyrimido[4,5-b][1,4]diazepin-2-ylamino)-N-((R)-1-hydroxymethyl-2-methyl-propyl)-3-methoxy-benzamide]
< 1000 | CCC(CO)NC(=O)c1ccc(Nc2ncc3c(n2)N(C2CCCC2)CCC(=O)N3C)c(OC)c1 (stereo not shown) [compound 153, 4-(9-Cyclopentyl-5-methyl-6-oxo-6,7,8,9-tetrahydro-5H-pyrimido[4,5-b][1,4]diazepin-2-ylamino)-N-(1-hydroxymethyl-propyl)-3-methoxy-benzamide]
< 1000 | COc1cc(C(=O)NCC(C)O)ccc1Nc1ncc2c(n1)N(C1CCCC1)CCC(=O)N2C (stereo not shown) [compound 154, 4-(9-Cyclopentyl-5-methyl-6-oxo-6,7,8,9-tetrahydro-5H-pyrimido[4,5-b][1,4]diazepin-2-ylamino)-N-(2-hydroxy-propyl)-3-methoxy-benzamide]
< 1000 | COc1cc(C(=O)NC(C)(C)CN2CCCC2)ccc1Nc1ncc2c(n1)N(C1CCCC1)CCC(=O)N2C [compound 155, 4-(9-Cyclopentyl-5-methyl-6-oxo-6,7,8,9-tetrahydro-5H-pyrimido[4,5-b][1,4]diazepin-2-ylamino)-N-(1,1-dimethyl-2-pyrrolidin-1-yl-ethyl)-3-methoxy-benzamide]
< 100 | COc1cc(C(=O)NC(C)(C)CN2CCCCC2)ccc1Nc1ncc2c(n1)N(C1CCCC1)CCC(=O)N2C [compound 156, 4-(9-Cyclopentyl-5-methyl-6-oxo-6,7,8,9-tetrahydro-5H-pyrimido[4,5-b][1,4]diazepin-2-ylamino)-N-(1,1-dimethyl-2-piperidin-1-yl-ethyl)-3-methoxy-benzamide]

Compound | IC50 [nM]
COc1cc(C(=O)NC2CCN(C)CC2)ccc1Nc1ncc2c(n1)N(C1CCCC1)CC1(CCC1)C(=O)N2C [compound 100, 4-(9-Cyclopentyl-5-methyl-6-oxo-6,7,8,9-tetrahydro-5H-spiro[pyrimido[4,5-b][1,4]diazepin-3,1′-cyclobutane]-2-ylamino)-3-methoxy-N-(1-methyl-piperidin-4-yl)-benzamide] | < 100
